Experimental data taken from patent publication US20260223850A1, “SUBSTITUTED PYRROLIDONE COMPOUND, PREPARATION METHOD THEREFOR, COMPOSITION AND APPLICATION THEREOF” (QINGDAO KINGAGROOT CHEMICAL COMPOUND CO., LTD., priority 2023, published 2026).

Key:
Type in all cases: in vivo
[1] = system: Digitaria sanguinalis; test: Seedling stage sealing experiment for water-seeding; conditions: 120 g a.i./ha, 15 days, fresh weight control rate
How it was run: (§1)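 Pre-emergence spray on soil-covered seeds in moist bowls, rates 120/60/30/15 g a.i./ha, n = 3. Fresh-weight control graded 0–9 at day 15.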

[2] = system: Echinochloa crusgalli; test: as above; conditions: 120 g a.i./ha, 15 days, fresh weight control rate
[3] = system: Leptochloa chinensis; test: as above; conditions: 120 g a.i./ha, 15 days, fresh weight control rate
How it was run: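 Seeds sown in soil-filled bowls kept moist in water-filled boxes; compound in acetone diluted with water and spray-applied at 120, 60, 30 and 15 g a.i./ha, triplicate. After 15 days in greenhouse, fresh-weight growth control scored on a 0–9 scale (9 = dead, 0 = no effect), averaged.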

[4] = system: Echinochloa phyllopogon; test: as above; conditions: 120 g a.i./ha, 15 days, fresh weight control rate
How it was run: as §1

[5] = system: Huaidao (rice cultivar); test: Seedling stage sealing experiment for water-seeding (crop safety); conditions: 120 g a.i./ha, 15 days, fresh weight control rate; for Huaidao (rice cultivar) plant damage level (growth control rate): spray, seedling stage sealing for water-seeding; for Huaidao (rice cultivar) plant damage level: seedling stage sealing
How it was run: as §1

[6] = spray, seedling stage sealing for water-seeding

| SMILES | Digitaria sanguinalis activity level (growth control rate) ([1]; seedling stage sealing) | Echinochloa crusgalli activity level (growth control rate) ([2]; seedling stage sealing) | Leptochloa chinensis activity level (growth control rate) [3] | Digitaria sanguinalis activity level (growth control rate) [1, 6] | Echinochloa crusgalli activity level (growth control rate) [2, 6] | Echinochloa phyllopogon activity level (growth control rate) [4, 6] | Huaidao (rice cultivar) plant damage level (growth control rate) [5] | Echinochloa phyllopogon activity level (growth control rate) ([4]; seedling stage sealing) | Huaidao (rice cultivar) plant damage level [5] |
| --- | --- | --- | --- | --- | --- | --- | --- | --- | --- |
| CN1C[C@H](c2cc(F)cc(F)c2)[C@@H](C(=O)Nc2cnn(C)c2Cl)C1=O [115′] | 8 (Level 8: growth control rate greater than or equal to 90% and less than 100%) | 9 | 8 (Level 8: growth control rate greater than or equal to 90% and less than 100%) |  |  |  |  |  |  |
| Cc1cccc([C@H]2CN(C)C(=O)[C@@H]2C(=O)Nc2cnn(C)c2C2CC2)c1 [139′] | 7 (Level 7: growth control rate greater than or equal to 80% and less than 90%) | 9 | 9 |  |  |  |  |  |  |
| C=CCn1ncc(NC(=O)[C@H]2C(=O)N(C)C[C@@H]2c2cccc(C(F)(F)F)c2)c1Cl [162′] | 8 (Level 8: growth control rate greater than or equal to 90% and less than 100%) | 9 | 9 |  |  |  |  |  |  |
| Cc1ccc([C@H]2CN(C)C(=O)[C@@H]2C(=O)Nc2cnn(C)c2Cl)cc1F [313′] | 9 | 9 | 9 |  |  |  |  |  |  |
| Cc1cccc([C@H]2CN(C)C(=O)[C@@H]2C(=O)Nc2cnn(C(C)C)c2C(F)(F)F)c1 [526′] |  |  |  | 9 | 9 | 6 (Level 6: growth control rate greater than or equal to 70% and less than 80%) | 0 |  |  |
| Cc1cccc([C@H]2CN(C)C(=O)[C@@H]2C(=O)Nc2cnn(C3CC3)c2C(F)(F)F)c1 [527′] |  |  |  | 9 | 9 | 6 (Level 6: growth control rate greater than or equal to 70% and less than 80%) | 0 |  |  |
| Cc1cccc([C@H]2CN(C)C(=O)[C@@H]2C(=O)Nc2cnn(C)c2S(C)(=O)=O)c1 [531′] |  |  |  | 9 | 9 | 9 | 0 |  |  |
| CO/N=C/c1c(NC(=O)[C@H]2C(=O)N(C)C[C@@H]2c2cccc(C)c2)cnn1C [532′] |  |  |  | 9 | 9 | 6 (Level 6: growth control rate greater than or equal to 70% and less than 80%) | 0 |  |  |
| CCn1ncc(NC(=O)[C@H]2C(=O)N(C)C[C@@H]2c2cccc(C(F)(F)F)c2)c1F [533′] |  |  |  | 9 | 9 | 9 | 0 |  |  |
| CCn1ncc(NC(=O)[C@H]2C(=O)N(C)C[C@@H]2c2cccc(C(F)(F)F)c2)c1C(F)(F)F [535′] |  |  |  | 9 | 9 | 9 | 0 |  |  |
| COCn1ncc(NC(=O)[C@H]2C(=O)N(C)C[C@@H]2c2cccc(C(F)(F)F)c2)c1C1CC1 [540′] |  |  |  | 9 | 9 | 9 | 0 |  |  |
| Cc1cc(C)cc([C@H]2CN(C)C(=O)[C@@H]2C(=O)Nc2cnn(C)c2C(F)F)c1 [546′] |  |  |  | 9 | 9 | 9 | 0 |  |  |
| Cc1cc(C)cc([C@H]2CN(C)C(=O)[C@@H]2C(=O)Nc2cnn(C(C)C)c2C(F)(F)F)c1 [547′] |  |  |  | 9 | 9 | 9 | 0 |  |  |
| Cc1cc(C)cc([C@H]2CN(C)C(=O)[C@@H]2C(=O)Nc2cnn(C3CC3)c2C(F)(F)F)c1 [548′] |  |  |  | 9 | 9 | 6 (Level 6: growth control rate greater than or equal to 70% and less than 80%) | 0 |  |  |
| CN1C[C@H](c2cc(F)cc(Cl)c2)[C@@H](C(=O)Nc2cnn(C(F)F)c2Cl)C1=O [554′] |  |  |  | 9 | 9 | 9 | 0 |  |  |
| CN1C[C@H](c2cc(F)cc(Cl)c2)[C@@H](C(=O)Nc2cnn(C)c2C2CC2)C1=O [555′] |  |  |  | 9 | 9 | 9 | 0 |  |  |
| CN1C[C@H](c2cc(F)cc(C(F)F)c2)[C@@H](C(=O)Nc2cnn(C)c2Cl)C1=O [556′] |  |  |  | 9 | 9 | 9 | 2 (Level 2: growth control rate greater than or equal to 10% and less than 20%) |  |  |
| Cc1cc([C@H]2CN(C)C(=O)[C@@H]2C(=O)Nc2cnn(C(F)F)c2Cl)cc(C(F)(F)F)c1 [560′] |  |  |  | 9 | 9 | 9 | 0 |  |  |
| Cc1cc([C@H]2CN(C)C(=O)[C@@H]2C(=O)Nc2cnn(C)c2C2CC2)cc(C(F)(F)F)c1 [561′] |  |  |  | 9 | 9 | 9 | 1 (Level 1: growth control rate less than 10%) |  |  |
| COc1cccc(C2CN(C)C(=O)C2C(=O)Nc2cnn(C)c2Cl)c1 (stereo not shown) [Compound 28] | 9 | 9 |  |  |  |  |  | 9 | 0 |
| CC(C)Oc1cccc(C2CN(C)C(=O)C2C(=O)Nc2cnn(C)c2Cl)c1 (stereo not shown) [Compound 29] | 9 | 9 |  |  |  |  |  | 9 | 0 |
| CN1CC(c2cccc(C(F)(F)F)c2)C(C(=O)Nc2cnn(C)c2F)C1=O (stereo not shown) [Compound 119] | 9 | 9 |  |  |  |  |  | 9 | 0 |
| CN1CC(c2cccc(C(F)(F)F)c2)C(C(=O)Nc2cnn(C)c2Br)C1=O (stereo not shown) [Compound 120] | 9 | 9 |  |  |  |  |  | 9 | 0 |
| CN1CC(c2cccc(C(F)(F)F)c2)C(C(=O)Nc2cnn(C)c2)C1=O (stereo not shown) [Compound 156] | 7 (Level 7: growth control rate greater than or equal to 80% and less than 90%) | 6 (Level 6: growth control rate greater than or equal to 70% and less than 80%) |  |  |  |  |  | 6 (Level 6: growth control rate greater than or equal to 70% and less than 80%) | 0 |
| CCCCOc1cccc(C2CN(C)C(=O)C2C(=O)Nc2cnn(C)c2Cl)c1 (stereo not shown) [Compound 221] | 9 |  | 9 |  |  |  |  |  |  |
| CN1CC(c2ccc(Cl)s2)C(C(=O)Nc2cnn(C)c2Cl)C1=O (stereo not shown) [Compound 339] | 7 (Level 7: growth control rate greater than or equal to 80% and less than 90%) | 9 | 6 (Level 6: growth control rate greater than or equal to 70% and less than 80%) |  |  |  |  |  |  |
